Patent US20040224981A1, “Antibacterial methods and compositions” (priority 2003, published 2004)
Read-outs that look alike come from different tables or passages of the source.

Key:
E. faecalis = test: MIC against E. faecalis; type: cell-based
Description: (§1) The MRS inhibitor 4 alone and in combination with mupirocin (mupirocin salt and 1:1 combination) were tested against a collection of Gram-positive pathogens.
MRSi compound 5 alone and in combination with mupirocin was tested recent clinical isolates of E. faecalis (n=28) and E. faecium (n=23). Both the acetate salt and mupirocinate salts of MRSi compound 5 maintained potent activity against vancomycin-susceptible and—resistant enterococci (Tables 8, 9, and 10).

S. hemolyticus = test: MIC against S. hemolyticus; type: cell-based
Description: as §1
(§2) The MRS inhibitor 8 was also prepared as a fusidate and mupirocinate salt and tested for antibacterial activity against Gram-positive bacteria (Table 3). […] MRSi compound 8 alone and the fusidate and mupirocin salts were active against mupirocin-resistant S. aureus and S. epidermidis and organisms such as E. faecalis that are not susceptible to mupirocin.
(§3) The MRS inhibitor 5 acetate and mupirocin salts were tested against a collection of Gram-positive bacteria.

S. epidermidis = test: MIC against S. epidermidis; type: cell-based
Description: as §1, §2, §3

S. aureus = test: MIC against S. aureus strains and clinical isolates (broth microdilution); type: cell-based, Staphylococcus aureus
Description: were tested against a collection of clinical isolates of S. aureus including strains that were multi-resistant to mupirocin and to other agents such as gentamicin and oxacillin.
The acetate and mupirocin salts of the MRS inhibitor compound 5 were tested against a collection of both low and high-level mupirocin resistant clinical isolates of S. aureus (Table 6).
The bacterial strains were tested for susceptibility to mupirocin and MRSi compound 2 using the broth microdilution method in accordance with NCCLS guideline to determine their MICs.
Briefly, the MIC and checkerboard titration assays were performed with strains in microtiter trays with cation-supplemented Mueller-Hinton broth (Difco). Inocula were prepared by suspending growth from blood agar plates in sterile saline to a density equivalent to that of a 0.5 McFarland standard and were diluted […] to produce a final inoculum of 5×10^5 CFU/ml. The trays were incubated aerobically overnight. Standard quality control strains were included with each run. Fractional inhibitory concentrations (FICs) were calculated as the MIC of drug A or B in combination/MIC of drug A or B alone, and the FIC index was obtained by adding the two FICs. FIC indices were interpreted as synergistic if the values were ≦0.5, additive or indifferent if the values were >0.5 to 4, and antagonistic if the values were >4.0.

S. pyogenes = test: MIC against S. pyogenes; type: cell-based, Streptococcus pyogenes
Description: as §1
S. pyogenes is also a significant skin pathogen and 48 recent clinical isolates were tested for their susceptibility to MRSi compound 5 alone (acetate) and in combination (1:1) with mupirocin (mupirocinate).

[1] = Table 3, E. faecalis ATCC 29212
[2] = Table 3, S. aureus ATCC 43300 (ORSA)
[3] = Table 3, S. aureus NRS107 (mupA)
[4] = Table 3, S. pyogenes ATCC 19615
[5] = Table 3, S. pyogenes MB143 (macrolide rest.)

Q: With `Cc1c(CNCCCNc2cc(=O)c3ccccc3[nH]2)sc(Br)c1Br` [MRSI Cmpd 4 acetate, N-(4,5-Dibromo-3-methylthiophen-2-ylmethyl)-N′-(1H-quinolin-4-one)propane-1,3-diamine] as the compound, how does the MIC (E. faecalis; Enterococcus faecalis, ATCC29212, Table 2, E. faecalis ATCC 29212, read-out: MIC) read?
A: ≤ 0.008 µg/mL

Q: And the MIC (E. faecalis; Enterococcus faecalis, Table 2, E. faecalis 1, read-out: MIC)?
A: 0.015 µg/mL

Q: What about the MIC (E. faecalis; Enterococcus faecalis, Table 2, E. faecalis 7, read-out: MIC) of the same compound?
A: ≤ 0.008 µg/mL

Q: And the MIC (S. hemolyticus; Table 2, S. hemolyticus NRS50, read-out: MIC)?
A: 0.25 µg/mL

Q: And the MIC (S. hemolyticus; Table 2, S. hemolyticus NRS116, read-out: MIC)?
A: 0.5 µg/mL

Q: What about the MIC (S. epidermidis; Staphylococcus epidermidis, Table 2, S. epidermidis NRS6, read-out: MIC) of the same compound?
A: 0.5 µg/mL

Q: And the MIC (S. epidermidis; Staphylococcus epidermidis, Table 2, S. epidermidis NRS7, read-out: MIC)?
A: 0.03 µg/mL

Q: What about the MIC (S. epidermidis; Staphylococcus epidermidis, Table 2, S. epidermidis NRS8, read-out: MIC) of the same compound?
A: 0.25 µg/mL

Q: What about the MIC (S. aureus; Staphylococcus aureus, ATCC29213, Table 2, S. aureus ATCC 29213, read-out: MIC) of the same compound?
A: 0.25 µg/mL

Q: And the MIC (S. aureus; Staphylococcus aureus, ATCC43300, Table 2, S. aureus ATCC 43300 (ORSA), read-out: MIC)?
A: 0.25 µg/mL

Q: And the MIC (S. aureus; Staphylococcus aureus, NRS107, Table 2, S. aureus NRS107 (mupA), read-out: MIC)?
A: 0.03 µg/mL

Q: And the MIC (S. aureus; Staphylococcus aureus, Table 2, S. aureus Oxford, read-out: MIC)?
A: 0.03 µg/mL

Q: What about the MIC (S. pyogenes; Streptococcus pyogenes, ATCC19615, Table 2, S. pyogenes ATCC 19615, read-out: MIC) of the same compound?
A: 0.25 µg/mL

Q: What about the MIC (S. pyogenes; Streptococcus pyogenes, Table 2, S. pyogenes MB143 (macrolide rest.), read-out: MIC) of the same compound?
A: 0.12 µg/mL

Q: With `CC(=CC(=O)OCCCCCCCCC(=O)O)CC1OCC(CC2OC2C(C)C(C)O)C(O)C1O.Cc1c(CNCCCNc2cc(=O)c3ccccc3[nH]2)sc(Br)c1Br` (stereo not shown) [MRSi Cmpd 4 mupirocinate, N-(4,5-DIBROMO-3-METHYLTHIOPHEN-2-YLMETHYL)-N′-(1H-QUINOLIN-4-ONE)PROPANE-1,3-DIAMINE MUPIROCINATE] as the compound, how does the MIC (E. faecalis; Table 2, E. faecalis 1) read?
A: 0.12 µg/mL

Q: And the MIC (E. faecalis; Table 2, E. faecalis 7)?
A: 0.12 µg/mL

Q: And the MIC (E. faecalis; Table 2, E. faecalis ATCC 29212)?
A: 0.06 µg/mL

Q: What about the MIC (S. hemolyticus; Table 2, S. hemolyticus NRS50) of the same compound?
A: 0.5 µg/mL

Q: And the MIC (S. hemolyticus; Table 2, S. hemolyticus NRS116)?
A: 0.5 µg/mL

Q: What about the MIC (S. epidermidis; Table 2, S. epidermidis NRS6) of the same compound?
A: 1 µg/mL

Q: And the MIC (S. epidermidis; Table 2, S. epidermidis NRS7)?
A: 0.25 µg/mL

Q: And the MIC (S. epidermidis; Table 2, S. epidermidis NRS8)?
A: 1 µg/mL

Q: And the MIC (S. aureus; Table 2, S. aureus ATCC 29213)?
A: 0.5 µg/mL

Q: And the MIC (S. aureus; Table 2, S. aureus ATCC 43300 (ORSA))?
A: 0.5 µg/mL

Q: And the MIC (S. aureus; Table 2, S. aureus NRS107 (mupA))?
A: 0.25 µg/mL

Q: And the MIC (S. aureus; Table 2, S. aureus Oxford)?
A: 0.25 µg/mL

Q: And the MIC (S. pyogenes; Table 2, S. pyogenes ATCC 19615)?
A: 0.25 µg/mL

Q: And the MIC (S. pyogenes; Table 2, S. pyogenes MB143 (macrolide rest.))?
A: 0.25 µg/mL

Q: What does the source list for `Clc1cc(Cl)c2c(Cl)c(CNCCCNc3nc4ncccc4[nH]3)[nH]c2c1` [MRSi Cmpd 8 acetate, N-(1H-imidazo[4,5-b]pyridin-2-yl)-N′-(3,4,6-trichloro-1H-indol-2-ylmethyl)—propane-1,3-diamine]?
A: MIC (E. faecalis; Enterococcus faecalis, ATCC29212, Table 3, E. faecalis ATCC 29212, read-out: MIC): 0.03 µg/mL; MIC (E. faecalis; Enterococcus faecalis, Table 3, E. faecalis 1, read-out: MIC): 0.03 µg/mL; MIC (E. faecalis; Enterococcus faecalis, Table 3, E. faecalis 7, read-out: MIC): 0.03 µg/mL; MIC (S. hemolyticus; Table 3, S. hemolyticus NRS50, read-out: MIC): 0.06 µg/mL; MIC (S. hemolyticus; Table 3, S. hemolyticus NRS116, read-out: MIC): 0.12 µg/mL; MIC (S. epidermidis; Staphylococcus epidermidis, Table 3, S. epidermidis NRS6, read-out: MIC): 0.12 µg/mL; MIC (S. epidermidis; Staphylococcus epidermidis, Table 3, S. epidermidis NRS7, read-out: MIC): 0.06 µg/mL; MIC (S. epidermidis; Staphylococcus epidermidis, Table 3, S. epidermidis NRS8, read-out: MIC): 0.12 µg/mL; MIC (S. aureus; Staphylococcus aureus, ATCC29213, Table 3, S. aureus ATCC 29213, read-out: MIC): 0.06 µg/mL; MIC (S. aureus; Staphylococcus aureus, ATCC43300, Table 3, S. aureus ATCC 43300 (ORSA), read-out: MIC): 0.03 µg/mL; MIC (S. aureus; Staphylococcus aureus, NRS107, Table 3, S. aureus NRS107 (mupA), read-out: MIC): 0.03 µg/mL; MIC (S. aureus; Staphylococcus aureus, Table 3, S. aureus Oxford, read-out: MIC): 0.03 µg/mL; MIC (S. pyogenes; Streptococcus pyogenes, ATCC19615, Table 3, S. pyogenes ATCC 19615, read-out: MIC): 0.12 µg/mL; MIC (S. pyogenes; Streptococcus pyogenes, Table 3, S. pyogenes MB143 (macrolide rest.), read-out: MIC): 0.12 µg/mL

Q: How did the MIC (E. faecalis; Table 3, E. faecalis 1) turn out when `CC(=O)O[C@H]1C[C@@]2(C)[C@@H](C[C@@H](O)[C@H]3[C@@]4(C)CC[C@@H](O)[C@@H](C)[C@@H]4CC[C@@]32C)/C1=C(\CCC=C(C)C)C(=O)O.Clc1cc(Cl)c2c(Cl)c(CNCCCNc3nc4ncccc4[nH]3)[nH]c2c1` [MRSi Cmpd 8 fusidate, N-(1H-IMIDAZO[4,5-B] PYRIDIN-2-YL)-N′-(3,4,6-TRICHLORO-1H-INDOL-2-YLMETHYL)-PROPANE-1,3-DIAMINE FUSIDATE] was run?
A: 0.06 µg/mL

Q: What about the MIC (E. faecalis; Table 3, E. faecalis 7) of the same compound?
A: 0.12 µg/mL

Q: What about the MIC (E. faecalis; [1]) of the same compound?
A: 0.12 µg/mL

Q: What about the MIC (S. hemolyticus; Table 3, S. hemolyticus NRS50) of the same compound?
A: 0.12 µg/mL

Q: And the MIC (S. hemolyticus; Table 3, S. hemolyticus NRS116)?
A: 0.25 µg/mL

Q: What about the MIC (S. epidermidis; Table 3, S. epidermidis NRS6) of the same compound?
A: 0.25 µg/mL

Q: And the MIC (S. epidermidis; Table 3, S. epidermidis NRS7)?
A: 0.12 µg/mL

Q: What about the MIC (S. epidermidis; Table 3, S. epidermidis NRS8) of the same compound?
A: 0.25 µg/mL

Q: What about the MIC (S. aureus; Table 3, S. aureus ATCC 29213) of the same compound?
A: 0.12 µg/mL

Q: And the MIC (S. aureus; [2])?
A: 0.06 µg/mL

Q: And the MIC (S. aureus; [3])?
A: 0.06 µg/mL

Q: And the MIC (S. aureus; Table 3, S. aureus Oxford)?
A: 0.06 µg/mL

Q: What about the MIC (S. pyogenes; [4]) of the same compound?
A: 0.5 µg/mL

Q: And the MIC (S. pyogenes; [5])?
A: 0.5 µg/mL

Q: How did the MIC (E. faecalis; Table 3, E. faecalis 1) turn out when `CC(=CC(=O)OCCCCCCCCC(=O)O)CC1OCC(CC2OC2C(C)C(C)O)C(O)C1O.Clc1cc(Cl)c2c(Cl)c(CNCCCNc3nc4cccnc4[nH]3)[nH]c2c1` (stereo not shown) [MRSi Cmpd 8 mupirocinate, N-(1H-IMIDAZO [4,5-B]PYRIDIN-2-YL)-N′-(3,4,6-TRICHLORO-1H—INDOL-2-YLMETHYL)-PROPANE-1,3-DIAMINE MUPIROCINATE] was run?
A: 0.06 µg/mL

Q: And the MIC (E. faecalis; Table 3, E. faecalis 7)?
A: 0.12 µg/mL

Q: And the MIC (E. faecalis; [1])?
A: 0.12 µg/mL

Q: What about the MIC (S. hemolyticus; Table 3, S. hemolyticus NRS50) of the same compound?
A: 0.12 µg/mL

Q: And the MIC (S. hemolyticus; Table 3, S. hemolyticus NRS116)?
A: 0.25 µg/mL

Q: What about the MIC (S. epidermidis; Table 3, S. epidermidis NRS6) of the same compound?
A: 0.5 µg/mL

Q: What about the MIC (S. epidermidis; Table 3, S. epidermidis NRS7) of the same compound?
A: 0.12 µg/mL

Q: And the MIC (S. epidermidis; Table 3, S. epidermidis NRS8)?
A: 0.25 µg/mL

Q: And the MIC (S. aureus; Table 3, S. aureus ATCC 29213)?
A: 0.12 µg/mL

Q: What about the MIC (S. aureus; [2]) of the same compound?
A: 0.12 µg/mL

Q: And the MIC (S. aureus; [3])?
A: 0.12 µg/mL

Q: What about the MIC (S. aureus; Table 3, S. aureus Oxford) of the same compound?
A: 0.12 µg/mL

Q: What about the MIC (S. pyogenes; [4]) of the same compound?
A: 0.25 µg/mL

Q: And the MIC (S. pyogenes; [5])?
A: 0.12 µg/mL
